Measurements taken from US9872863B2, “Targeting primary cilia to treat glaucoma” (Indiana University Research and Technology Corporation, priority 2014, dated 2018).

Tests used:
wpk−/− rats = experiment: Intraocular pressure in wpk−/− rats (Tonolab tonometer); assay type: in vivo, rat; settings: 17-day-old wpk−/− rats, systemic, once per day for 8 days, agonist 50 ng/g, measured 24 hours after treatment
Experimental: All animal experiments followed the guidelines of the ARVO Statement for the Use of Animals in Ophthalmic and Vision Research and were approved by the Institutional Animal Care and Use Committee of Indiana University School of Medicine. Wpk rats, a polycystic kidney disease model, were housed under a 12-hour light/dark cycle with free access to water and food (Smith et al., Nat. Genet. 2006, 38(2):191-196). For […], 50 mg/ml sodium pentobarbital was injected.
(§1) lntraocular Pressure (TOP) was measured with the TONOLAB tonometer TV02 (Helsinki, Finland) with rats under topical anesthesia. IOP was measured using six valid rebound measurements of the device from the eye, where the mean of the middle five readings was taken for one summary measurement. A single set of readings was collected with the best reproducibility indicator during the IOP measurements.
Based on the results presented above, the functional consequences of activating TRPV4 on eye pressure were therefore assessed in the wpk rat model. The wpk rat is a well-established model for studying ciliopathy, as these animals develop hydrocephalus that responds to cilia-based therapy.
8-day old wpk^−/− rats were treated with sham, TRPV4 agonist (50 ng/g, GSK 1016790A), or antagonist (HC 067047) once per day for 8 days. […]

TRPV4 = target: T1, TRPV4 (Homo sapiens, UniProt Q9HBA0); experiment: Ca2+ imaging, Fura-2 F340/380 ratio after TRPV4 agonist; assay type: cell-based; set-up: TRPV4-induced calcium flux, ratio of F340/380: dose or concentration left out as unconfirmed
T1 construct: endogenous in cells; host or cells: HTM cells, NHF fibroblasts, NHKC keratinocytes, Lowe syndrome patient fibroblasts and keratinocytes
Experimental: Flow-induced Ca^2+ signals were examined in the presence and absence of cilia in HTM cells. To remove primary cilia, 2 mM aqueous chlorohydrate (Sigma, St. Louis) was added for 48 hours. Prior to flow experiments, cells were washed three times with PBS, and fresh medium was added for 24 hours. The Fura-2 loaded HTM cells were subjected to laminar flow rates as indicated. Single-cell analysis of the Ca^2+ signals (ratio 340/380 nm) of the same experiment was obtained. Intracellular Ca^2+ changes were monitored by ratiometric imaging of Fura-2 AM fluorescence in the HTM cells. HTM cells were loaded with Fura-2 AM for 1 hour at 37° C. in PBS with 40 μM fura-2 AM, 0.33 mM pyruvate, 0.901 mM Ca^2+, 0.5 mM Mg^2+, 5.5 mM glucose, and 0.1% BSA. The Fura-2 AM-loaded HTM cells were washed in PBS and were mounted in the chamber. Ca^2+ imaging experiments were performed using a monochromator-based TILL PHOTONICS imaging system, which was attached to an inverted ZEISS microscope equipped (×2.5 objective) with a back-illuminated ANDOR CCD camera. Fura-2 AM was alternately excited at 345 nm and 380 nm and the emitted light was collected using a 510-nm long-pass filter. The TILLVISION software (TILL PHOTONICS) was used to acquire all fluorescence imaging experiments and to perform the analysis of images. Images were acquired every 2 seconds. The background fluorescence was subtracted and the intracellular Ca^2+ concentration ([Ca^2+]i) was calculated using the equation: [Ca^2+]i=Kd×[(R−Rmin)/(Rmax−R)]×[Fmax(380)/Fmin(380)](R is the fluorescence ratio, Rmax is the ratio at saturation calcium concentration, Rmin is the ratio at zero calcium in the medium, Fmin(380) is the fluorescence at 380 nm at zero Ca^2+ concentration in the medium, and Fmax(380) is the fluorescence at 380 nm at saturation Ca^2+ concentration) (Touw et al., Am. J. Physiol. Gastro. Liver Physiology 2012, 302(1):G66-76).
For calcium flow experiments, HTM cells and NHF cells were first incubated in 3% BSA in PBS and stained with Fura2 dye for 1 hour. Ca^2+ flux was induced by laminar flow gradient (16 μl/s) over the cell surface, which bends cilia, followed by 10 mM KCl. Cells were imaged for calcium during flow. Calcium flux was also measured by F340/380 ratio in HTM cells and NHF cells after treatment with the 0.1 μM TRPV4 agonist GSK1016790A. Results presented represent calcium mobilization in three independent experiments.
HTM cells treated, with or without pressure, were further evaluated to determine their response to TRPV4 agonist. HTM cells were serum-starved for 48 hours to induce ciliogenesis, followed by treatment with 0 or 50 mmHg for 3 hours. Cells were loaded with Fura-2 AM dye for 1 hour, followed with […] TRPV4 agonist GSK1016790A.
OCRL is required for TRPV4-mediated calcium signalling in HTM cells. HTM cells were additionally treated with OCRL siRNA or scrambled control siRNA, with or without wild-type OCRL or OCRL-D499A rescue. 0.1 μM TRPV4 agonist GSK1016790A treatment was performed and calcium mobilization by F340/380 (value X 1000) was measured and shown.
Additionally, a Lowe syndrome patient's keratinocytes were isolated and assayed for their response to TRPV4 treatment. NHKC or Lowe keratinocytes were serum-starved, loaded with Fura-2 AM and then treated with 0.1 μM TRPV4 agonist GSK1016790A. F340/380 ratio (value X 1000) was determined.

C57BL/6 WT mice = experiment: Intraocular pressure in C57BL/6 WT mice, 4 days of treatment; assay type: in vivo, mouse; settings: nine-week old C57BL/6 WT mice, systemic, daily over 4 days, 24 hours after treatment; decrease from 12.4
Experimental: as §1
This finding was confirmed in wild-type C5BL/6 mice treated with systemic TRPV4 agonist, antagonist, or sham control, daily over 4 days. Nine-week old C57BL/6 WT mice were treated with sham, TRPV/4 agonist GSK 1016790A or antagonist HC 067047 for 4 days. IOP was measured using a Tonolab tonometer 24 hours after treatment. As shown in FIG. 12D article, a decrease in IOP from 12.4 to 10.3 mmHg was seen.

HTM cells = experiment: Pressure-induced TNFα, TGFβ1 and Gli1 mRNA in serum-starved HTM cells (RT-PCR); assay type: cell-based, human; settings: 50 mmHg for 3 hours
Experimental: Total RNA was extracted using the RNAEASY® kit (Qiagen). Purified RNA was quantitated with the NANODROP® 2000 (Thermo Fisher Scientific, Lafayette, Colo.). Reverse transcription of total RNA was done using SUPERSCRIPT cDNA synthesis kit (Invitrogen) with random hexamers. Quantitative RT-PCR was performed using the RQ and ΔΔCt method on a Step One Real-Time PCR machine (Bio-Rad Laboratories, Hercules, Calif.). Each assay was performed in triplicate with Power SYBR green MasterMix (SA Biosciences, Frederick, Md.).
To analyze the cellular changes in the TM cells, a hydrostatic pressure chamber was developed similar to that of Mandel et al. (Invest. Ophthalmol. Vis. Sci. 2010, 51(6):3129-3138). The cells were grown in 60 mm polycarbonate dishes sealed to attach to a plastic column filled with 400 mL DMEM/F12 media with or without serum for cilia induction. The column was temperature controlled at 37° C. in humidified chamber. […]
HTM cells were serum-starved for 48 hours and treated with saline, saline plus 50 mmHg pressure, chlorohydrate, and chlorohydrate plus 50 mmHg pressure for 3 hours. Levels of mRNA of TNFα, TGFβ1 and Gli1 were then measured. […] Serum-starved HTM cells were also placed under 50 mmHg pressure for 0, 10, 20, 40, 60 and 80 minutes and analyzed for expression of TNFα and IL-33. […]

T1 sequence (Q9HBA0 whole entry): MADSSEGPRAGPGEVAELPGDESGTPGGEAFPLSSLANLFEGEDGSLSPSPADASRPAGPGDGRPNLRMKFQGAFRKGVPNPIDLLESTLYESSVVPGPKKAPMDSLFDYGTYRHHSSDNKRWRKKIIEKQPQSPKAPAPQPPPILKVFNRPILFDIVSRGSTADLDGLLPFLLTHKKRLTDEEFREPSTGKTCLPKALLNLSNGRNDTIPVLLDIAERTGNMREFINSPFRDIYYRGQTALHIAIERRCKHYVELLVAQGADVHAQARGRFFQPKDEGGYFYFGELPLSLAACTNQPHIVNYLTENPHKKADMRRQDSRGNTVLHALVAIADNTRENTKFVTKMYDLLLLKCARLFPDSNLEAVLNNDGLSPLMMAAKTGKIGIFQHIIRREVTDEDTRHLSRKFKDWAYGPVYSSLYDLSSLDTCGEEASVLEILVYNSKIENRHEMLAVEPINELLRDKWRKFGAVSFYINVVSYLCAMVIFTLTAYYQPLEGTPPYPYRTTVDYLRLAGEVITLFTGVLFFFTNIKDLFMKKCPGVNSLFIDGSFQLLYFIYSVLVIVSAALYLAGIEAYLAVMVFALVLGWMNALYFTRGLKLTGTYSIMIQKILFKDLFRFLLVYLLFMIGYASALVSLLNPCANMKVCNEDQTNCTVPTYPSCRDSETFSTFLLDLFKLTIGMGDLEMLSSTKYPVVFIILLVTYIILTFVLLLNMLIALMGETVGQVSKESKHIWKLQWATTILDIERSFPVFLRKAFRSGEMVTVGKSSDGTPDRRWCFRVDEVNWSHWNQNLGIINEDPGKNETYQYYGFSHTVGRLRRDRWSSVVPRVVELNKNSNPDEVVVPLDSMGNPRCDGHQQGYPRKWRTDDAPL

Row | Structure (SMILES) | Intraocular pressure (wpk−/− rats) | Calcium mobilization by F340/380 (TRPV4; HTM cells treated with OCRL siRNA, 0.1 μM agonist, rescued by wild-type OCRL, not by D499A mutant) | Calcium mobilization (TRPV4; Lowe patient fibroblasts (Lowe 1, Lowe 2)) | Calcium mobilization, F340/380 ratio (TRPV4; Lowe patient keratinocytes compared with normal keratinocytes (NHKC), 0.1 μM agonist) | Calcium flux as measured by F340/380 ratio (TRPV4; NHF cells, 0.1 μM agonist) | TRPV4-induced calcium flux, ratio of F340/380 (TRPV4; ciliated HTM cells, 50 mmHg hydrostatic pressure for 3 hours vs 0 mmHg) | IOP (C57BL/6 WT mice) | Elevation of gene transcription (TNFα, TGFβ1, Gli1 mRNA) in response to pressure (HTM cells)
1 | Cc1c(C(=O)Nc2cccc(C(F)(F)F)c2)cc(-c2ccccc2)n1CCCN1CCOCC1 [HC 067047] | not | – | – | – | – | – | – | –
2 | CC(C)C[C@H](NC(=O)c1cc2ccccc2s1)C(=O)N1CCN(C(=O)[C@H](CO)NS(=O)(=O)c2ccc(Cl)cc2Cl)CC1 [GSK1016790A, N-((1S)-1-{[4-((2S)-2-{[(2,4-dichlorophenyl)sulfonyl]amino}-3-hydroxypropanoyl)-1-piperazinyl]carbonyl}-3-methylbutyl)-1-benzothiophene-2-carboxamide] | significantly reduced | decrease in F340/F380 fura-2 signaling | failed to elicit calcium mobilization | failed to elicit calcium mobilization | elicited | significant decrease in TRPV4-induced calcium flux | 10.3 mmHg | –
3 | OC(O)C(Cl)(Cl)Cl [chlorohydrate] | – | – | – | – | – | – | – | reduced the elevation of gene transcription in response to pressure
